Where two headings read alike, the source gives them in different places.
What was measured:
[1] = in vivo; settings: for LD50 at 48 h: mouse, in vivo, po, read-out: LD 50 per os
Description: The three compounds were administered in the usual way to lots of 10 male mice (Swiss C.D.) of average weight 20 g. Mortality was assessed after 48 hours for toxicity per os.

[2] = Diuretic activity (diuresis, Na+, K+, uric acid excretion); assay type: in vivo, Male Swiss C.D. mice; settings: mice; for Uricosuria (coefficient): uric acid by Caraway's method; for Diuresis (coefficient) / K+ (coefficient) / Na+ (coefficient) / Na+/K+: urine sampled 2 and 4 hours
Description: The three compounds were administered to Male Swiss C.D. mice of average weight 22 g. The animals were deprived of food and drink for 2 hours prior to treatment.
The animals were grouped two by two in cages where their metabolism is to be monitored. Sampling of the urine 2 and 4 hours after treatment. The experiments were made per lot of six pairs. The products were administered at constant volume.
The following determinations were made:
Na^+ and K^+ ions expressed in milliequivalents (Millival or M. Eq.) excreted in 2 or 4 hours (Eppendorf Flame Photometer);
uric acid excreted expressed in mg/2 or 4 hours determined by Caraway's method (Amer. J. Clin. Pathol. 1955. 25 840).
They are considered in the form of the coefficient: [formula]

[3] = male Swiss C.D. mice, per os, mortality after 48 hours

Structure (SMILES) | LD50 at 48 h [1, 3] | Uricosuria (coefficient) ([2]; 100 mg/kg P.O.) | Diuresis (coefficient) ([2]; 100 mg/kg P.O.) | K+ (coefficient) ([2]; 100 mg/kg P.O.) | Na+ (coefficient) ([2]; 100 mg/kg P.O.) | Na+/K+ ([2]; 100 mg/kg P.O.) | Uricosuria (coefficient) ([2]; 20 mg/kg P.O.) | MLD per os [1, 3] | Diuresis (coefficient) ([2]; 20 mg/kg P.O.) | K+ (coefficient) ([2]; 20 mg/kg P.O.) | Na+ (coefficient) ([2]; 20 mg/kg P.O.) | Na+/K+ ([2]; 20 mg/kg P.O.) | LD50 at 48 h [1]
O=C(O)COc1ccc(C(=O)c2cc3ccccc3o2)c(Cl)c1Cl [Example 1, 4-(2-benzofuryl-keto)-2,3-dichloro-phenoxyacetic acid] | < 1000 mg/kg | 1.56 | 1.3 | 1.74 | 1.52 | 0.87 | – | – | – | – | – | – | –
CCc1oc2ccccc2c1C(=O)c1cc(I)c(O)c(I)c1 [benziodarone, reference compound] | – | – | – | – | – | – | 1.44 | – | – | – | – | – | –
O=C(O)COc1ccc(C(=O)c2cc3ccccc3s2)c(Cl)c1Cl [Example 2, 4-(2-benzothienyl-keto)-2,3-dichloro-phenoxyacetic acid] | – | 1.05 | 1.2 | 0.91 | 1.18 | 1.29 | – | > 1000 mg/kg | – | – | – | – | –
C=C(CC)C(=O)c1ccc(OCC(=O)O)c(Cl)c1Cl [ethacrynic acid, reference compound] | 600 mg/kg | – | – | – | – | – | 1.27 | – | 2.4 | 1.48 | 2.76 | 1.87 | –
NS(=O)(=O)c1cc(C(=O)O)c(NCc2ccco2)cc1Cl [furosemide, reference compound] | – | – | – | – | – | – | 1.34 | – | 3.0 | 1.51 | 4.28 | 2.83 | –
O=C(O)COc1ccc(C(=O)c2sc3ccccc3c2Cl)c(Cl)c1Cl [Example 3, 4-[2-(3-chloro)-benzothienyl-keto]-2,3-dichloro-phenoxy acetic acid] | – | 1.26 | 1.3 | 1.17 | 1.29 | 1.10 | – | – | – | – | – | – | > 1000 mg/kg
